Where two headings read alike, the source gives them in different places. Marks after values point to notes of the source that are not given here.
Legend:
[1] = test system: extensive stage small cell lung cancer; settings: IMpower133 treatment arm, ITT, with chemotherapy; cited from earlier work
[2] = test system: extensive stage small cell lung cancer; settings: CASPIAN treatment arm, ITT, with chemotherapy; cited from earlier work
[3] = test system: metastatic colorectal cancer; assay: IMPALA phase III trial (NCT02077868), progression-free survival; format: in vivo, human
From the text: An international, multicentre, open-label phase III trial conducted on 549 metastatic colorectal cancer patients in 8 EU countries. […] After progression, patients started re-induction therapy, with those in the experimental arm continuing to receive lefitolimod in addition.

[4] = test system: Regulatory T cells (% of CD4+ T cells); assay: Regulatory T cells in blood of IMPULSE patients, flow cytometry; format: in vivo, human
[5] = test system: extensive stage small cell lung cancer; assay: IMPULSE phase II trial (NCT02200081), switch maintenance vs continuation maintenance, survival; format: in vivo, human
From the text: An international, multicentre, open-label phase II trial conducted on 102 extensive stage small cell lung cancer after platinum based first line therapy patients. Patients who had received four cycles of first line induction chemotherapy (platinum-based) were randomized to receive either combination lefitolimod maintenance therapy, or local standard of care (control). After progression, patients received second line therapy.
The phase II IMPULSE study explored the benefit in OS of an immunotherapeutic switch maintenance therapy of ES-SCLC by the TLR9 agonist lefitolimod (dSLIM-30L1). In comparison to the various local standards of care (SoC), typically carboplatin plus etoposide, or cisplatin plus etoposide. […] A combinatorial post hoc analyses was performed of all accessible immunological data and relevant clinical parameters of the IMPLUSE study. Additionally, in order to determine in what conditions adaptive or innate immune stimulation may enhance chemotherapy outcomes, published mPFS and mOS data from the respective treatment and control arms for chemotherapy immunomodulation maintenance studies utilizing PD-L1 inhibitor-antibodies were incorporated, comparing the use of checkpoint inhibitors with the TLR9 agonist used in IMPULSE.
All lung cancer trials used (IMPULSE, IMpower133, CASPIAN, Keynote-604, and EA5161) are “maintenance” trials, wherein an immune induction treatment, a set of chemotherapy cycles, is applied to initiate anti-tumour responses (as defined by RECIST guidelines), followed by maintenance therapy until tumour progress. IMpower133, CASPIAN, Keynote-604, and EA5161 are “continuation maintenance” trials, whereas IMPULSE is a “switch maintenance” trial. In the four continuation maintenance trials, the immunomodulatory product (IMP), i.e., the respective […] checkpoint inhibitors (CPI) atezolizumab, durvalumab, pembrolizumab, or nivolumab, are present during induction chemotherapy and in the maintenance phase. In the switch maintenance trial IMPULSE, the IMP lefitolimod is not used during induction chemotherapy but introduced (“switched” to) in the maintenance phase of the trial (FIG. 1). Thus, for comparison of IMPULSE PFS and OS data with the other studies, IMPULSE mPFS1 and mOS1 were factored from the start of induction chemotherapy. Therefore, for all following analyses, the respective mOS1 values of IMPULSE are used.

[6] = test system: extensive stage small cell lung cancer; settings: EA5161 treatment arm, ITT, with chemotherapy; cited from earlier work
[7] = test system: extensive stage small cell lung cancer; settings: Keynote-604 treatment arm, ITT, with chemotherapy; cited from earlier work
[8] = Baseline, end of 4th cycle of induction PE chemotherapy
[9] = Visit 2, days 118-125 from start of induction PE chemotherapy
[10] = Visit 3, days 146-153 from start of induction PE chemotherapy
[11] = Visit 4, days 188-195 from start of induction PE chemotherapy

Atezolizumab: PD-L1 inhibiting antibody (Roche AG; CAS No. 1380723-44-3), IMpower133 trial
mOS treatment [1]: 12.3 m

Durvalumab: PD-L1 inhibiting antibody (Astra Zeneca, CAS No. 1428935-60-7), CASPIAN trial
mOS treatment [2]: 13.0 m

Lefitolimod
mPFS compared to control ([3]; patients receiving re-induction treatment followed by cycles of chemotherapy and lefitolimod): significantly superior | mPFS compared to the control arm ([3]; switch-maintenance therapy): inferior | Regulatory T cells, Max [4, 8]: 12.22 % of CD4+ T cells | Regulatory T cells, Mean [4, 8]: 7.3905 % of CD4+ T cells | Regulatory T cells, Median [4, 8]: 7.470 % of CD4+ T cells | Regulatory T cells, Min [4, 8]: 4.19 % of CD4+ T cells | Regulatory T cells, Max [4, 9]: 13.65 % of CD4+ T cells | Regulatory T cells, Mean [4, 9]: 8.2827 % of CD4+ T cells | Regulatory T cells, Median [4, 9]: 8.100 % of CD4+ T cells | Regulatory T cells, Min [4, 9]: 4.44 % of CD4+ T cells | Regulatory T cells, Max [4, 10]: 13.06 % of CD4+ T cells | Regulatory T cells, Mean [4, 10]: 8.7502 % of CD4+ T cells | Regulatory T cells, Median [4, 10]: 8.905 % of CD4+ T cells | Regulatory T cells, Min [4, 10]: 4.27 % of CD4+ T cells | Regulatory T cells, Max [4, 11]: 16.33 % of CD4+ T cells | Regulatory T cells, Mean [4, 11]: 9.5175 % of CD4+ T cells | Regulatory T cells, Median [4, 11]: 9.205 % of CD4+ T cells | Regulatory T cells, Min [4, 11]: 5.82 % of CD4+ T cells | fraction of regulatory T cells (Treg) ([4]; over duration of treatment, IMPULSE): increases with duration | mOS treatment ([5]; IMPULSE treatment arm, ITT, mOS1 calculated from start of induction chemotherapy): 12.4* m | gain in mOS ([5]; OS1, 5 cycles vs 4 cycles of PE chemotherapy followed by TLR9 agonist (FIG. 2)): 2.3 m | efficacy in terms of mOS ([5]; applied subsequent to platinum-based chemotherapy rather than in combination, IMPULSE compared to IMPALA): more efficacious | mOS improved by ([5]; four qw3 PE cycles followed by a 5th cycle with PE in week 1 and TLR9 agonist in weeks 2 and 3 (FIG. 2)): 2.3 months | PFS1 ([5]; full analysis set (FAS)): 6.1 months | mOS1 ([5]; patient subgroup (FIG. 6)): 10.7 months | mOS1 ([5]; patient subgroup with PFS threshold >6.2 months (FIG. 6)): 17.1 months | benefit by mPFS or mOS compared to local standards of care ([5]; switch maintenance therapy, all patients): No additional benefit | median OS in certain subgroups of patients ([5]; switch maintenance therapy, subgroups): strong median OS improvements

Nivolumab: checkpoint inhibitor antibody (Bristol-Myers Squibb; CAS No 946414-94-4), EA5161 trial
mOS treatment [6]: 11.3 m

Pembrolizumab: checkpoint inhibitor antibody (Merck Inc.; CAS No. 1374853-91-4), Keynote-604 trial
mOS treatment [7]: 10.8 m

— patent US20240285671A1, “SEQUENTIAL INNATE AND ADAPTIVE IMMUNE MODULATION FOR CANCER TREATMENT” (Gentechnologiestiftung- Dr. Georg und Ingeburg Scheel …, priority 2021, published 2024)
